Data from US8415486B2, “IAP inhibitors” (TetraLogic Pharmaceuticals Corp., priority 2009, dated 2013).

What was measured:
XIAP BIR-3 = target: T1, XIAP BIR-3 (Homo sapiens, UniProt P98170); assay: Fluorescence polarization binding to XIAP BIR-3 with labeled peptide AbuRPF-K(5-Fam)-NH2; conditions: 40 nM BIR3, 5 nM labeled peptide, reported as ranges
T1 construct: 40 nM of the respective IAP BIR3
Procedure, shortened: (§1)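 Competitive FP: compounds titrated against 5 nM AbuRPF-K(5-Fam)-NH2 tracer and 40 nM BIR3 protein, 15 min at RT in 0.1 M potassium phosphate pH 7.5 with bovine γ-globulin. Polarization read at 485/520 nm; KD reported in ranges A <0.1, B 0.1–1, C >1–10, D >10 μM.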

cIAP-1 BIR-3 = target: T2, cIAP-1 BIR-3 (Homo sapiens, UniProt Q13490); assay: Fluorescence polarization binding to cIAP-1 BIR-3 with labeled peptide AbuRPF-K(5-Fam)-NH2; conditions: 40 nM BIR3, 5 nM labeled peptide, reported as ranges, read-out: KD (c-IAP-1 BIR3)
T2 construct: 40 nM of the respective IAP BIR3
T2 sequence (Q13490 253-363 limits assumed): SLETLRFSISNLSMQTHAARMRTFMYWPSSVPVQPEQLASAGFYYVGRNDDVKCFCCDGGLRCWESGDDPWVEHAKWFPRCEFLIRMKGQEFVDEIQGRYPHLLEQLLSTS
Procedure, shortened: as §1

[1] = tested on: ovarian cancer cell line, SK-OV-3; assay: SK-OV-3 cell growth inhibition (MTT, 72 hrs); format: cell-based; conditions: Homo sapiens, concentration giving 50% cell survival, reported as ranges
Procedure, shortened: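 After overnight seeding in McCoy's medium with 10% FBS, SK-OV-3 cells were exposed to compound at 0.003-10 μM for 72 hrs at 37° C. MTT was then added for 3 h, with DMSO solubilization and OD read at 535 nm. CC50 is the concentration giving 50% survival relative to untreated control, reported as ranges.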

T1 sequence (P98170 241-356 limits assumed): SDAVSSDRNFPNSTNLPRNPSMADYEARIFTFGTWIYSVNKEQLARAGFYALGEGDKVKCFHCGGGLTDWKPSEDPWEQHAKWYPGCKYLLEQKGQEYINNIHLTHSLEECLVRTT

Row | Kd (XIAP BIR-3) | Kd (cIAP-1 BIR-3) | SMILES | CC50 [1]
1 | 0.1 to 1 µM | < 0.1 µM | CN[C@@H](C)C(=O)N[C@H](C(=O)N1CC[C@@H]2[C@H]1[C@@H](OC(=O)NC1CCCC1)CN2C(=O)NC(C)C)C(C)(C)C [Example 56, Cyclopentyl-carbamic acid 4-[3,3-dimethyl-2-(2-methylamino-propionylamino)-butyryl]-1-isopropylcarbamoyl-octahydro-pyrrolo[3,2-b]pyrrol-3-yl ester] | 0.1 to 1 µM
2 | 1 to 10 µM | 0.1 to 1 µM | CN[C@@H](C)C(=O)N[C@H](C(=O)N1CC[C@@H]2[C@H]1[C@@H](OC(=O)N1CCCC1)CN2C(=O)NC(C)C)C(C)(C)C [Example 58, Pyrrolidine-1-carboxylic acid 4-[3,3-dimethyl-2-(2-methylamino-propionylamino)-butyryl]-1-isopropylcarbamoyl-octahydro-pyrrolo[3,2-b]pyrrol-3-yl ester] | 1 to 10 µM
3 | < 0.1 µM | < 0.1 µM | CN[C@@H](C)C(=O)N[C@H](C(=O)N1CC[C@@H]2[C@H]1[C@@H](COc1ccc(F)c(F)c1)CN2S(C)(=O)=O)C(C)(C)C [Example 63, N-{1-[6-(3,4-Difluoro-phenoxymethyl)-4-methanesulfonyl-hexahydro-pyrrolo[3,2-b]pyrrole-1-carbonyl}-2,2-dimethyl-propyl]-2-methylamino propionamide] | < 0.1 µM
4 | < 0.1 µM | < 0.1 µM | CN[C@@H](C)C(=O)N[C@H](C(=O)N1CC[C@H]2NC[C@H](COc3ccc(F)c(F)c3)[C@H]21)C(C)(C)C [Example 64, N-{1-[6-(3,4-Difluoro-phenoxymethyl)-hexahydro-pyrrolo[3,2-b]pyrrole-1-carbonyl]-2,2-dimethyl-propyl}-2-methylamino propionamide] | < 0.1 µM
5 | < 0.1 µM | < 0.1 µM | CN[C@@H](C)C(=O)N[C@H](C(=O)N1CC[C@@H]2[C@H]1[C@@H](COc1ccc(F)c(F)c1)CN2C(=O)OC)C(C)(C)C [Example 70, 3-(3,4-Difluoro-phenoxymethyl)-4-[3.3-dimethyl-2-(2-methylaminopropionylamino)-butyryl]-hexahydro-pyrrolo[3,2-b]pyrrole-1-carboxylic acid methyl ester] | < 0.1 µM
6 | < 0.1 µM | < 0.1 µM | CN[C@@H](C)C(=O)N[C@H](C(=O)N1CC[C@@H]2[C@H]1[C@@H](COc1ccc(F)c(F)c1)CN2C(=O)CC(C)C)C(C)(C)C [Example 71, N-{1-[6-(3,4-Difluoro-phenoxymethyl)-4-(3-methyl-butyryl)-hexahydro-pyrrolo[3,2-b]pyrrole-1-carbonyl]-2,2-dimethyl-propyl}-2-methylamino propionamide] | < 0.1 µM

Further lines, the molecule ahead of its results:

Row | SMILES | Kd (XIAP BIR-3) | Kd (cIAP-1 BIR-3) | CC50 [1]
7 | CN[C@@H](C)C(=O)N[C@H](C(=O)N1CC[C@@H]2[C@H]1[C@@H](OC(=O)NC1CCCCC1)CN2C(=O)NC(C)C)C(C)(C)C [Example 57, Cyclohexyl-carbamic acid 4-[3,3-dimethyl-2-(2-methylamino-propionylamino)-butyryl]-1-isopropylcarbamoyl-octahydro-pyrrolo[3,2-b]pyrrol-3-yl ester] | 0.1 to 1 µM | < 0.1 µM | < 0.1 µM
8 | CN[C@@H](C)C(=O)N[C@H](C(=O)N1CC[C@@H]2[C@H]1[C@@H](OC(=O)N1CCCCC1)CN2C(=O)NC(C)C)C(C)(C)C [Example 59, Piperidine-1-carboxylic acid 4-[3,3-dimethyl-2-(2-methylamino-propionylamino)-butyryl]-1-isopropylcarbamoyl-octahydro-pyrrolo[3,2-b]pyrrol-3-yl ester] | 1 to 10 µM | < 0.1 µM | 1 to 10 µM
9 | CN[C@@H](C)C(=O)N[C@H](C(=O)N1CC[C@@H]2[C@H]1[C@@H](OC(=O)N1CCOCC1)CN2C(=O)NC(C)C)C(C)(C)C [Example 60, Morpholine-4-carboxylic acid 4-[3,3-dimethyl-2-(2-methylamino-propionylamino)-butyryl]-1-isopropylcarbamoyl-octahydro-pyrrolo[3,2-b]pyrrol-3-yl ester] | 1 to 10 µM | < 0.1 µM | 1 to 10 µM
10 | CN[C@@H](C)C(=O)N[C@H](C(=O)N1CC[C@@H]2[C@H]1[C@@H](O)CN2C(=O)NC(C)C)C(C)(C)C [Example 61, 4-[3,3-Dimethyl-2-(2-methylamino-propionylamino)-butyryl]-3-hydroxy-hexahydro-pyrrolo[3,2-b]pyrrole-1-carboxylic acid isopropylamide] | > 10 µM | 0.1 to 1 µM | 1 to 10 µM
11 | CNC(=O)N1C[C@H](COc2ccc(F)c(F)c2)[C@@H]2[C@H]1CCN2C(=O)[C@@H](NC(=O)[C@H](C)NC)C(C)(C)C [Example 62, 3-(3,4-Difluoro-phenoxymethyl)-4-[3,3-dimethyl-2-(2-methylamino-propionylamino)-butyryl]-hexahydro-pyrrolo[3,2-b]pyrrole-1-carboxylic acid methylamide] | < 0.1 µM | < 0.1 µM | < 0.1 µM
12 | CN[C@@H](C)C(=O)N[C@H](C(=O)N1CC[C@@H]2[C@H]1[C@@H](COc1ccc(F)c(F)c1)CN2C(C)=O)C(C)(C)C [Example 65, N-{1-[4-Acetyl-6-(3,4-difluoro-phenoxymethyl)-hexahydro-pyrrolo[3,2-b]pyrrole-1-carbonyl]-2,2-dimethyl-propyl}-2-methylamino propionamide] | < 0.1 µM | < 0.1 µM | < 0.1 µM
13 | CN[C@@H](C)C(=O)N[C@H](C(=O)N1CC[C@@H]2[C@H]1[C@@H](COc1ccc(F)c(F)c1)CN2C(=O)C(C)=O)C(C)(C)C [Example 66, N-{1-[6-(3,4-Difluoro-phenoxymethyl)-4-(2-oxo-propionyl)-hexahydro-pyrrolo[3,2-b]pyrrole-1-carbonyl]-2,2-dimethyl-propyl}-2-methylamino propionamide] | < 0.1 µM | < 0.1 µM | < 0.1 µM
14 | CN[C@@H](C)C(=O)N[C@H](C(=O)N1CC[C@@H]2[C@H]1[C@@H](COc1ccc(F)c(F)c1)CN2C(=O)NC(C)C)C(C)(C)C [Example 67, 3-(3,4-Difluoro-phenoxymethyl)-4-[3.3-dimethyl-2-(2-methylaminopropionylamino)-butyryl]-hexahydro-pyrrolo[3,2-b]pyrrole-1-carboxylic acid isopropylamide] | < 0.1 µM | < 0.1 µM | < 0.1 µM
15 | CN[C@@H](C)C(=O)N[C@H](C(=O)N1CC[C@@H]2[C@H]1[C@@H](COc1ccc(F)c(F)c1)CN2C(=O)N(C)C)C(C)(C)C [Example 68, 3-(3,4-Difluoro-phenoxymethyl)-4-[3.3-dimethyl-2-(2-methylaminopropionylamino)-butyryl]-hexahydro-pyrrolo[3,2-b]pyrrole-1-carboxylic acid dimethylamide] | < 0.1 µM | < 0.1 µM | < 0.1 µM
16 | CN[C@@H](C)C(=O)N[C@H](C(=O)N1CC[C@@H]2[C@H]1[C@@H](COc1ccc(F)c(F)c1)CN2C(=O)C1CC1)C(C)(C)C [Example 69, N-{1-[4-Cyclopropanecarbonyl-6-(3,4-difluoro-phenoxymethyl)-hexahydro-pyrrolo[3,2-b]pyrrole-1-carbonyl]-2,2-dimethyl-propyl}-2-methylamino propionamide] | 0.1 to 1 µM | < 0.1 µM | < 0.1 µM
17 | CN[C@@H](C)C(=O)N[C@H](C(=O)N1CC[C@@H]2[C@H]1[C@@H](COc1ccc(F)c(F)c1)CN2c1ncccn1)C(C)(C)C [Example 72, N-{1-[6-(3,4-Difluoro-phenoxymethyl)-4-pyrimidin-2-yl-hexahydro-pyrrolo[3,2-b]pyrrole-1-carbonyl]-2,2-dimethylpropyl}-2-methylamino-propionamide] | 0.1 to 1 µM | < 0.1 µM | < 0.1 µM
